Reference: ChEMBL document CHEMBL5506025, “Discovery of LLC0424 as a Potent and Selective in Vivo NSD2 PROTAC Degrader” (J Med Chem, 2024)
Calls of active or inactive are those of the source. The calls are words filed in the database; no cut-off is given here.

What was measured:
[1] = molecular target: T1, Protein cereblon/Eukaryotic peptide chain release factor GTP-binding subunit ERF3A (Homo sapiens) (UniProt Q96SW2+P15170); test: PROTAC activity at CRBN/GSPT1 in human RPMI 8402 cells assessed as decrease in GSPT1 level at 2 uM measured after 12 hrs by TMT-labeled quantitative proteomics assay; format: cell-based
[2] = molecular target: T2, Protein cereblon/Histone-lysine N-methyltransferase NSD2 (Homo sapiens) (UniProt O96028+Q96SW2); test: PROTAC activity at CRBN/NSD2 in human SEM cells assessed as induction of NSD2 degradation at 2 uM incubated for 12 hrs by immunoblot analysis; format: cell-based
[3] = molecular target: T2, Protein cereblon/Histone-lysine N-methyltransferase NSD2 (Homo sapiens); test: PROTAC activity at CRBN/NSD2 in human SEM cells assessed as induction of NSD2 degradation at 0.5 to 2 uM measured after 24 hrs by immunoblot analysis; format: cell-based; settings: dose 0.5-2 µM
[4] = molecular target: T2, Protein cereblon/Histone-lysine N-methyltransferase NSD2 (Homo sapiens); test: PROTAC activity at CRBN/NSD2 in human SEM cells assessed as induction of NSD2 degradation incubated for 24 hrs by immunoblot analysis; format: cell-based; settings: dose 0.001-10 µM
[5] = molecular target: T2, Protein cereblon/Histone-lysine N-methyltransferase NSD2 (Homo sapiens); test: PROTAC activity at CRBN/NSD2 in human RPMI 8402 cells assessed as induction of NSD2 degradation at 2 uM pretreated with MLN4924 for 2 hrs followed by compound addition and measured after 6 to 12 hrs by Western blot analysis; format: cell-based; settings: time 6-12 hrs
[6] = molecular target: T1, Protein cereblon/Eukaryotic peptide chain release factor GTP-binding subunit ERF3A (Homo sapiens); test: PROTAC activity at CRBN/GSPT1 in human SEM cells assessed as decrease in GSPT1 level at 2 uM measured after 12 hrs by immunoblot analysis; format: cell-based
[7] = molecular target: T2, Protein cereblon/Histone-lysine N-methyltransferase NSD2 (Homo sapiens); test: PROTAC activity at CRBN/NSD2 in human RPMI 8402 cells assessed as induction of NSD2 degradation incubated for 24 hrs by immunoblot analysis; format: cell-based; settings: dose 0.001-10 µM
[8] = system: SEM cells; test: Downregulation of CD38 gene expression in human SEM cells measured after 14 days by RNA sequencing assay; format: functional, cell-based; settings: time 14.0 day
[9] = molecular target: T2, Protein cereblon/Histone-lysine N-methyltransferase NSD2 (Homo sapiens); test: PROTAC activity at CRBN/NSD2 in human RPMI 8402 cells assessed as decrease in NSD2 level at 2 uM measured after 12 hrs by TMT-labeled quantitative proteomics assay; format: cell-based
[10] = system: SEM cells; test: Downregulation of MS4A1 gene expression in human SEM cells measured after 14 days by RNA sequencing assay; format: functional, cell-based; settings: time 14.0 day
[11] = molecular target: T2, Protein cereblon/Histone-lysine N-methyltransferase NSD2 (Homo sapiens); test: In vivo PROTAC activity at CRBN/NSD2 in SCID mouse xenografted with human 22Rv1 cells assessed as downregulation of NSD2 level at 60 mg/kg, iv for 5 days by immunohistochemical analysis; format: functional, organism-based; settings: CWR22R, time 5.0 day
[12] = molecular target: T2, Protein cereblon/Histone-lysine N-methyltransferase NSD2 (Homo sapiens); test: In vivo PROTAC activity at CRBN/NSD2 in SCID mouse xenografted with human SEM cells assessed as downregulation of NSD2 level at 60 mg/kg, ip for 5 days by Western blot analysis; format: functional, organism-based; settings: time 5.0 day
[13] = molecular target: Protein cereblon/Histone-lysine N-methyltransferase, H3 lysine-36 specific (Homo sapiens) (UniProt Q96L73+Q96SW2); test: PROTAC activity at CRBN/NSD1 in human SEM cells assessed as decrease in NSD1 level at 2 uM measured upto 8 hrs by immunoblot analysis; format: cell-based
[14] = molecular target: T1, Protein cereblon/Eukaryotic peptide chain release factor GTP-binding subunit ERF3A (Homo sapiens); test: PROTAC activity at CRBN/GSPT1 in human SEM cells assessed as decrease in GSPT1 level at 2 uM measured upto 8 hrs by immunoblot analysis; format: cell-based
[15] = molecular target: T2, Protein cereblon/Histone-lysine N-methyltransferase NSD2 (Homo sapiens); test: PROTAC activity at CRBN/NSD2 in human SEM cells assessed as decrease in NSD2 level at 2 uM measured after 4 hrs by TMT-labeled quantitative proteomics assay; format: cell-based
[16] = molecular target: T2, Protein cereblon/Histone-lysine N-methyltransferase NSD2 (Homo sapiens); test: PROTAC activity at CRBN/NSD2 in human RPMI 8402 cells assessed as induction of NSD2 degradation at 2 uM measured after 12 to 24 hrs by immunoblot analysis; format: cell-based; settings: time 12-24 hrs
[17] = molecular target: T2, Protein cereblon/Histone-lysine N-methyltransferase NSD2 (Homo sapiens); test: PROTAC activity at CRBN/NSD2 in human RPMI 8402 cells assessed as induction of NSD2 degradation at 2 uM pretreated with thalidomide for 2 hrs followed by compound addition and measured after 6 to 12 hrs by Western blot analysis; format: cell-based; settings: time 6-12 hrs
[18] = system: RPMI 8402; test: Inhibition of colony formation in human RPMI 8402 cells at 2 uM administered every three days for 30 days by iodonitrotetrazolium chloride staining based microscopy analysis; format: functional, cell-based; settings: time 30.0 day
[19] = molecular target: T2, Protein cereblon/Histone-lysine N-methyltransferase NSD2 (Homo sapiens); test: In vivo PROTAC activity at CRBN/NSD2 in SCID mouse xenografted with human SEM cells assessed as downregulation of NSD2 level at 60 mg/kg, iv for 5 days by Western blot analysis; format: functional, organism-based; settings: time 5.0 day
[20] = molecular target: T2, Protein cereblon/Histone-lysine N-methyltransferase NSD2 (Homo sapiens); test: PROTAC activity at CRBN/NSD2 in human SEM cells assessed as induction of NSD2 degradation at 2 uM preincubated for 12 hrs followed by compound washout and measured after 48 hrs by immunoblot analysis; format: cell-based
[21] = system: SEM cells; test: Downregulation of TNFAIP3 gene expression in human SEM cells measured after 14 days by RNA sequencing assay; format: functional, cell-based; settings: time 14.0 day
[22] = molecular target: Protein cereblon/Histone-lysine N-methyltransferase NSD3 (Homo sapiens) (UniProt Q9BZ95+Q96SW2); test: PROTAC activity at CRBN/NSD3 in human SEM cells assessed as decrease in NSD3 level at 2 uM measured upto 8 hrs by immunoblot analysis; format: cell-based
[23] = molecular target: T2, Protein cereblon/Histone-lysine N-methyltransferase NSD2 (Homo sapiens); test: In vivo PROTAC activity at CRBN/NSD2 in SCID mouse xenografted with human 22Rv1 cells assessed as downregulation of NSD2 level at 60 mg/kg, iv for 5 days by Western blot analysis; format: functional, organism-based; settings: CWR22R, time 5.0 day
[24] = molecular target: T1, Protein cereblon/Eukaryotic peptide chain release factor GTP-binding subunit ERF3A (Homo sapiens); test: PROTAC activity at CRBN/GSPT1 in human RPMI 8402 cells assessed as decrease in GSPT1 level at 2 uM by immunoblot analysis; format: cell-based
[25] = molecular target: T2, Protein cereblon/Histone-lysine N-methyltransferase NSD2 (Homo sapiens); test: PROTAC activity at CRBN/NSD2 in human VCaP cells assessed as decrease in NSD2 level at 2 uM measured after 6 hrs by TMT-labeled quantitative proteomics assay; format: cell-based
[26] = molecular target: T2, Protein cereblon/Histone-lysine N-methyltransferase NSD2 (Homo sapiens); test: PROTAC activity at CRBN/NSD2 in human SEM cells assessed as induction of NSD2 degradation at 2 uM measured after 12 to 24 hrs by immunoblot analysis; format: cell-based; settings: time 12-24 hrs
[27] = molecular target: T2, Protein cereblon/Histone-lysine N-methyltransferase NSD2 (Homo sapiens); test: PROTAC activity at CRBN/NSD2 in human SEM cells assessed as induction of NSD2 degradation at 2 uM measured after 4 to 8 hrs hrs by immunoblot analysis; format: cell-based; settings: time 4-8 hrs
[28] = molecular target: T2, Protein cereblon/Histone-lysine N-methyltransferase NSD2 (Homo sapiens); test: PROTAC activity at CRBN/NSD2 in human RPMI 8402 cells assessed as induction of NSD2 degradation at 0.5 to 2 uM measured after 24 hrs by immunoblot analysis; format: cell-based; settings: dose 0.5-2 µM
[29] = system: RPMI 8402; test: Cytotoxicity against human RPMI 8402 cells assessed as inhibition of cell growth at 2 uM measured after 9 days by Celltiter-glo assay; format: functional, cell-based; settings: time 9.0 day
[30] = molecular target: Cereblon/Casein kinase I alpha (Homo sapiens) (UniProt P48729+Q96SW2); test: PROTAC activity at CRBN/CK1alpha in human SEM cells assessed as decrease in CK1alpha level at 2 uM measured upto 8 hrs by immunoblot analysis; format: cell-based
[31] = molecular target: T2, Protein cereblon/Histone-lysine N-methyltransferase NSD2 (Homo sapiens); test: In vivo PROTAC activity at CRBN/NSD2 in SCID mouse xenografted with human 22Rv1 cells assessed as downregulation of NSD2 level at 60 mg/kg, ip for 5 days by Western blot analysis; format: functional, organism-based; settings: CWR22R, time 5.0 day

T1 sequence (P15170 whole entry, looked up): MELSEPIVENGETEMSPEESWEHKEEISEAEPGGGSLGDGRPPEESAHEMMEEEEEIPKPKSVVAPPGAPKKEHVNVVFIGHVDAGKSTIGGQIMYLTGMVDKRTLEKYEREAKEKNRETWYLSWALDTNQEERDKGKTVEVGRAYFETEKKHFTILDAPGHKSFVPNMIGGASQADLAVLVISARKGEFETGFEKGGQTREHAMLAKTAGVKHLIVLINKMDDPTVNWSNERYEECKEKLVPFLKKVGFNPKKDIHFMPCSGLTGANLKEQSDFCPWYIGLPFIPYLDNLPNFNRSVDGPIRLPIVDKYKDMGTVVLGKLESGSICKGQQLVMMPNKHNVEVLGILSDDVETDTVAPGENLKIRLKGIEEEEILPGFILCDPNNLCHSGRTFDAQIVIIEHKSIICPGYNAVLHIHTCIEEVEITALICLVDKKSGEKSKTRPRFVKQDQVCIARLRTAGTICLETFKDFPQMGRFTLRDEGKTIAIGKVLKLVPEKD
T1 sequence (Q96SW2 whole entry, looked up): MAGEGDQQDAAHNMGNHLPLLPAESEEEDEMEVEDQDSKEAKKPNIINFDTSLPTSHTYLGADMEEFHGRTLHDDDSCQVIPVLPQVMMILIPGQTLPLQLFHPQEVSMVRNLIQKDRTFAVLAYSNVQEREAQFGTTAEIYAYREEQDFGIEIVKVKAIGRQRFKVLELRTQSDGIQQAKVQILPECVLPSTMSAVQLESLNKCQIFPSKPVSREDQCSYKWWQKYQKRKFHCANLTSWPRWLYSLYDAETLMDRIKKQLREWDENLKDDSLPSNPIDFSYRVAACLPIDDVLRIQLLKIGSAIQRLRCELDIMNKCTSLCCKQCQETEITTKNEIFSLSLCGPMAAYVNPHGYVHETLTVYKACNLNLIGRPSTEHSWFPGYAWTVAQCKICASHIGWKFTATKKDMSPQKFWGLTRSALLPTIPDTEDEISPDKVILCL
T2 sequence (O96028 whole entry, looked up): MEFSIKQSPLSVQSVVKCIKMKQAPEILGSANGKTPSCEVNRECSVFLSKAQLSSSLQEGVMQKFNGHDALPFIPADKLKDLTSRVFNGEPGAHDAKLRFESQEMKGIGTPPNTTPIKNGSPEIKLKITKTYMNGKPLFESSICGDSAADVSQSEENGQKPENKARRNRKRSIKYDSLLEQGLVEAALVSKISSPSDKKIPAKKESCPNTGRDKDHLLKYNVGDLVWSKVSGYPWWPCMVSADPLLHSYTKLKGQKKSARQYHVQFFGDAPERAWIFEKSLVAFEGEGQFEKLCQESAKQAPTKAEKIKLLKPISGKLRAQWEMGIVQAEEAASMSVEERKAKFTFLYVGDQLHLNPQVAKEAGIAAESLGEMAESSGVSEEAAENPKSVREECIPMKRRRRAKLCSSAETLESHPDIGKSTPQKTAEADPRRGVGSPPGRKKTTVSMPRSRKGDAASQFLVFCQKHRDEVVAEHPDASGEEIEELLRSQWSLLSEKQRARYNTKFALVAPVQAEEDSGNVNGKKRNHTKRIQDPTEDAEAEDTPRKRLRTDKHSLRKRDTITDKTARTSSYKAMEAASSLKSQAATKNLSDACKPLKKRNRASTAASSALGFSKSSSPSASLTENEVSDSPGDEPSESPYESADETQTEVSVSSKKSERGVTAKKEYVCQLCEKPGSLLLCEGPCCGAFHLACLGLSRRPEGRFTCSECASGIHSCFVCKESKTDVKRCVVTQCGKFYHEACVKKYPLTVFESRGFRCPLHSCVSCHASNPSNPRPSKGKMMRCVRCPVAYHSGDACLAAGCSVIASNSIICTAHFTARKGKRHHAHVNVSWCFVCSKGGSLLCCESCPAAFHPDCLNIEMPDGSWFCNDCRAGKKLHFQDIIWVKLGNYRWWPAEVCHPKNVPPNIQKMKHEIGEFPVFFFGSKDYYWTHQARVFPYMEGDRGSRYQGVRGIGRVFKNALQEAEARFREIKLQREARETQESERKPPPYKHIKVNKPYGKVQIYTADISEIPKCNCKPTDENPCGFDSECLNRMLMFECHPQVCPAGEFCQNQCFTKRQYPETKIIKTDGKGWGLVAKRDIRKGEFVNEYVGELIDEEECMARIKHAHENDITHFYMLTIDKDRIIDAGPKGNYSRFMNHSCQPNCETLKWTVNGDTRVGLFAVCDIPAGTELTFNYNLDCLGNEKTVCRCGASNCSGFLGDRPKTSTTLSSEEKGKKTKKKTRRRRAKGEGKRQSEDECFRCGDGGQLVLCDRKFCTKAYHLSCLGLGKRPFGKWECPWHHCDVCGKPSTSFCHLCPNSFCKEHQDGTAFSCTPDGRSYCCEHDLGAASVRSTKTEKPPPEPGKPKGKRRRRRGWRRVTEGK
T2 sequence (Q96SW2 whole entry, looked up): as the sequence (Q96SW2 whole entry, looked up) above
Chain of Cereblon/Casein kinase I alpha (Homo sapiens) (P48729 2-337 limits assumed): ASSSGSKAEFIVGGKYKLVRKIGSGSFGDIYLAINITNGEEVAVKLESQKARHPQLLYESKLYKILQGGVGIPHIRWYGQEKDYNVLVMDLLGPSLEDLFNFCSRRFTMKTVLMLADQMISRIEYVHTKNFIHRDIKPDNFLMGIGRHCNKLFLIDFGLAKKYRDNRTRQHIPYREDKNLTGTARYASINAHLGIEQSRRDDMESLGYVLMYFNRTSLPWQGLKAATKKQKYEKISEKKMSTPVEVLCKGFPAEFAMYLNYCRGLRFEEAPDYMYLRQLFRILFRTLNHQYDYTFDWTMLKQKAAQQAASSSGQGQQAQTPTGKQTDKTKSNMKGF
Chain of Cereblon/Casein kinase I alpha (Homo sapiens) (Q96SW2 whole entry partner): as the sequence (Q96SW2 whole entry, looked up) above
Chain of Protein cereblon/Histone-lysine N-methyltransferase NSD3 (Homo sapiens) (Q96SW2 whole entry, looked up): as above
Chain of Protein cereblon/Histone-lysine N-methyltransferase NSD3 (Homo sapiens) (Q9BZ95 whole entry, looked up): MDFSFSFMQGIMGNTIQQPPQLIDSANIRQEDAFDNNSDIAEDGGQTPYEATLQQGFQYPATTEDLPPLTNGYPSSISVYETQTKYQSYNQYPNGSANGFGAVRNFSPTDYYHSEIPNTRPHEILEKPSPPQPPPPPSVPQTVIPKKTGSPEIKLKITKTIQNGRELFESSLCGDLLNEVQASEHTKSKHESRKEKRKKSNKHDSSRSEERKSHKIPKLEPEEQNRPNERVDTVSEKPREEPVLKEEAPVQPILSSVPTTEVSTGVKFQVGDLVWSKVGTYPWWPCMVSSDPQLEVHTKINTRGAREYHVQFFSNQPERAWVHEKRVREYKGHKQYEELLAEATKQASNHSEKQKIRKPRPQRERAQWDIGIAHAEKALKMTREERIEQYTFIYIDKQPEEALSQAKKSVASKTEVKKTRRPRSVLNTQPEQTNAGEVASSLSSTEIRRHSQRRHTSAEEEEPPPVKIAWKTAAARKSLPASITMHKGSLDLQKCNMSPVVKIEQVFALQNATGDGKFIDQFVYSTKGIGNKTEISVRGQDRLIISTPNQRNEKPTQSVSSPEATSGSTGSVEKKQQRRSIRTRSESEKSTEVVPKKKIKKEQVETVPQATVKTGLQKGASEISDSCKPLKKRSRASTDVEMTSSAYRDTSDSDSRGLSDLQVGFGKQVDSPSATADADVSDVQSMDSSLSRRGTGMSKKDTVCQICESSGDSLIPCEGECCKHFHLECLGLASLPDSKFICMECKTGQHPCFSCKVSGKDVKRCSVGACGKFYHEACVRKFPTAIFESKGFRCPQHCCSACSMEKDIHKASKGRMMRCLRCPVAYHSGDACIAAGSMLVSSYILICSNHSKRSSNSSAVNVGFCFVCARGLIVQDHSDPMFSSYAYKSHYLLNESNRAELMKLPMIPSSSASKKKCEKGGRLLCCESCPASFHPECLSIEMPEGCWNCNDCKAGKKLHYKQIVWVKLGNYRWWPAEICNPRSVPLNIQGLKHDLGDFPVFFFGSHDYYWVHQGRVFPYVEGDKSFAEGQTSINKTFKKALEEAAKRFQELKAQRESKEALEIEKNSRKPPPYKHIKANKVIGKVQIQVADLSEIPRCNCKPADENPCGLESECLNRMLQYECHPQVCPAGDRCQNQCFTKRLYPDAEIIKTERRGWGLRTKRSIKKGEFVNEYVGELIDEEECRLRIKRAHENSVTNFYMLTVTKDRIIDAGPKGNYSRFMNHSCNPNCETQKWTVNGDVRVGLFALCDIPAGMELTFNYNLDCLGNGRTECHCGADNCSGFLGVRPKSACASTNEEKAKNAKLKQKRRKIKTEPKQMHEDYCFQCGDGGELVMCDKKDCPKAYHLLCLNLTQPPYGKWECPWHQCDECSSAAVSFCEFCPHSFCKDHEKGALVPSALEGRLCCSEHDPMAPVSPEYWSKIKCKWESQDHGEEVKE

- Activity [1]: Active
- Activity [2]: Active
- Activity [3]: Active
- Activity [4]: Dose-Dependent Effect
- Activity [5]: inactive
- Activity [6]: Active
- Activity [7]: Dose-Dependent Effect
- Activity [9]: Active
- Activity [11]: Active
- Activity [12]: Active
- Activity [13]: inactive
- Activity [14]: inactive
- Activity [15]: Active
- Activity [16]: Active
- Activity [17]: inactive
- Activity [19]: Active
- Activity [20]: inactive
- Activity [22]: inactive
- Activity [23]: Active
- Activity [24]: Active
- Activity [25]: Active
- Activity [26]: Active
- Activity [27]: Active
- Activity [28]: Active
- Activity [30]: inactive
- Activity [31]: Active
SMILES: O=C1CCC(N2C(=O)c3ccc(N4CCC(NC(=O)c5ccc(NC(=O)c6ccc(CN(C(=O)c7ccc8c(c7)OCC(=O)N8)C7CC7)cc6)cc5)CC4)cc3C2=O)C(=O)N1 (stereo unspecified)
- Activity [8]: Active
- Activity [10]: Active
- inhibition [18]: Active
- Activity [21]: Active
- Activity [29]: Active
